This is an account of results in US12503436B2, “Compounds and compositions for treating conditions associated with STING activity” (NOVARTIS PHARMA AG, priority 2021, dated 2025).

Each structure is given as a SMILES string.

The target of this assay is STING (Homo sapiens, UniProt Q86WV6, G230A/H232R/R293Q/R71H). As to the kind of experiment: STING reporter assay in THP1-Dual KO-IFNAR2 cells (2′3′cGAMP stimulation, luciferase reporter). Format: cell-based. The conditions noted are these: 15 μM 2′3′cGAMP stimulation, 24 h, read-out: Pharmaron, THP1_IFNAR2 STING 24 h Luci Normalized: GeoMean EC50. The essentials: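 EC50 from secreted luciferase (QUANTI-Luc Plus luminescence of supernatant) after 24 h at 37 °C, 5% CO2. Cells: THP1-Dual KO-IFNAR2, treated with compound (0.0017-100 μM final) plus lipofected 2′3′cGAMP at 15 μM final.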
Chain of STING (Q86WV6 whole entry R71H/G230A/H232R/R293Q): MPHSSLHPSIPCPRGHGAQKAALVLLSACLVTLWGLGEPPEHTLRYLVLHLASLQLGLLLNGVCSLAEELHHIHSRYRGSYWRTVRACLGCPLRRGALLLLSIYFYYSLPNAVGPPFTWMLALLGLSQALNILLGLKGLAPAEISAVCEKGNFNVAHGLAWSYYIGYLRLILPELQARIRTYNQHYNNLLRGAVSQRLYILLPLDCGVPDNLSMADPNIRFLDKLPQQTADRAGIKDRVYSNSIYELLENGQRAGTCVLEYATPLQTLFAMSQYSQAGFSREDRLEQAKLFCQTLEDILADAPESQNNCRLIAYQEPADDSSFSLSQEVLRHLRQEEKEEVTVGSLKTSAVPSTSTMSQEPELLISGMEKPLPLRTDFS
(In a reporter assay the amount or activity of a reporter protein is the signal.)
For `O=C(Nc1c[nH]c2ccc(CCOc3ccc(C(F)(F)F)cc3)cc12)C1CC1` [Compound 592, N-(5-(2-(4-(trifluoromethyl)phenoxy)ethyl)-1H-indol-3-yl)cyclopropanecarboxamide], the concentration giving a half-maximal response (EC50) lay in the range of 200 to 1000 nM.
Turning to `CC(=O)Nc1c[nH]c2c(F)cc(CCOc3ccc(C(F)(F)F)cc3)cc12` [Compound 270, N-(7-fluoro-5-(2-(4-(trifluoromethyl)phenoxy)ethyl)-1H-indol-3-yl)acetamide], the EC50 was in the range of 1000 to 5000 nM.
Next, `CC(C)(C)C(=O)Nc1c[nH]c2ccc(OCCc3ccc(C(F)(F)F)cc3)cc12` [Compound 186, N-(5-(4-(trifluoromethyl)phenethoxy)-1H-indol-3-yl)pivalamide]: 200 to 1000 nM; `O=C(Nc1c[nH]c2ccc(OCc3ccc(C(F)(F)F)cc3)cc12)C1(C(F)(F)F)CC1` [Compound 315, 1-(trifluoromethyl)-N-(5-((4-(trifluoromethyl)benzyl)oxy)-1H-indol-3-yl)cyclopropane-1-carboxamide]: 200 to 1000 nM.
In the case of `C[C@]1(C(=O)Nc2c[nH]c3ccc(OCc4ccc(C(F)(F)F)cc4)cc23)C[C@H](CO)C1` [Compound 416, cis-3-(hydroxymethyl)-1-methyl-N-(5-((4-(trifluoromethyl)benzyl)oxy)-1H-indol-3-yl)cyclobutane-1-carboxamide], the EC50 fell in the range of 200 to 1000 nM.
Next, `N#C[C@H]1C[C@@H]1C(=O)Nc1c[nH]c2ccc(OCc3ccc(C(F)(F)F)cc3)cc12` [Compound 585, (1S,2S)-2-cyano-N-(5-((4-(trifluoromethyl)benzyl)oxy)-1H-indol-3-yl)cyclopropane-1-carboxamide]: 200 to 1000 nM; `CC(=O)Nc1c[nH]c2ccc(OC3Cc4ccc(C(F)(F)F)cc4C3)cc12` (stereo not shown) [Compound 473, N-(5-((5-(trifluoromethyl)-2,3-dihydro-1H-inden-2-yl)oxy)-1H-indol-3-yl)acetamide]: 1000 to 5000 nM; `CC(=O)Nc1c[nH]c2ccc(CCOc3cncc(C(F)(F)F)c3)cc12` [Compound 481, N-[5-(2-{[5-(trifluoromethyl)pyridin-3-yl]oxy}ethyl)-1H-indol-3-yl]acetamide]: 1000 to 5000 nM.
Turning to `CC1(C(=O)Nc2c[nH]c3ccc(OCC[C@@H]4C[C@@H]5CN(CC(F)(F)F)C[C@@H]5C4)cc23)CCCO1` (stereo partly drawn) [Compound 160, 2-methyl-N-(5-(2-((3aR,5r,6aS)-2-(2,2,2-trifluoroethyl)octahydrocyclopenta[c]pyrrol-5-yl)ethoxy)-1H-indol-3-yl)tetrahydrofuran-2-carboxamide], the concentration for a half-maximal effect (EC50) lay in the range of 200 to 1000 nM.
In the case of `CC(=O)Nc1c[nH]c2c(C)cc(CCOc3ccc(C(F)(F)F)cc3)cc12` [Compound 264, N-(7-methyl-5-(2-(4-(trifluoromethyl)phenoxy)ethyl)-1H-indol-3-yl)acetamide], the EC50 lay within 1000 to 5000 nM.
Consider `CC1(C(=O)Nc2c[nH]c3ccc(OC[C@H]4C[C@@H]5CN(CC(F)(F)F)C[C@@H]5C4)cc23)COC1` [Compound 542, 3-methyl-N-(5-(((3aR,5s,6aS)-2-(2,2,2-trifluoroethyl)octahydrocyclopenta[c]pyrrol-5-yl)methoxy)-1H-indol-3-yl)oxetane-3-carboxamide], for which the 50% effective concentration (EC50) lay within 200 to 1000 nM.
Turning to `CC1(C)CC(C(=O)Nc2c[nH]c3ccc(CCOc4ccc(C(F)(F)F)cc4)cc23)C1` [Compound 348, 3,3-dimethyl-N-(5-(2-(4-(trifluoromethyl)phenoxy)ethyl)-1H-indol-3-yl)cyclobutane-1-carboxamide], the EC50 was in the range of 200 to 1000 nM.
Next, `N#C[C@H]1C[C@@H]1C(=O)Nc1c[nH]c2ccc(O[C@H]3C[C@@H](c4ccc(C(F)(F)F)cc4)C3)cc12` (stereo in doubt) [Compound 332, cis-2-cyano-N-(5-(cis-3-(4-(trifluoromethyl)phenyl)cyclobutoxy)-1H-indol-3-yl)cyclopropane-1-carboxamide]: 200 to 1000 nM.

For orientation: EC50 means the concentration that produces a half-maximal response.
